Data published in patent publication US8178559B2, “Organic compounds” (Novartis AG, priority 2004, dated 2012).

Target: T1, renin (Homo sapiens, UniProt P00797)
T1 construct: made in house; host or cells: Chinese Hamster Ovary cells
T1 sequence (P00797 67-406): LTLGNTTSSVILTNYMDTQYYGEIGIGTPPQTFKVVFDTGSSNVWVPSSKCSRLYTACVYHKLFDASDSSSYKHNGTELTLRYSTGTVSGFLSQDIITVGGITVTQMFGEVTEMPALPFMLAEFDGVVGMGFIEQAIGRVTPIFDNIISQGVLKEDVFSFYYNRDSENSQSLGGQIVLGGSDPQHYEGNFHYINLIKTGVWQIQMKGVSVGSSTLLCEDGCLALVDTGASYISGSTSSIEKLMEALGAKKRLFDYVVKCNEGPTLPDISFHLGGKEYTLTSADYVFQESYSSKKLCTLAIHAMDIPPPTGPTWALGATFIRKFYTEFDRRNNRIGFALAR
Assay: renin enzyme assay (which of the described assay systems is not specified)
Type: biochemical
Conditions: in the several assay system as described above
Experimental: Recombinant human renin (expressed in Chinese Hamster Ovary cells and purified using standard methods) at 7.5 nM concentration is incubated with test compound at various concentrations for 1 h at RT in 0.1 M Tris-HCl buffer, pH 7.4, containing 0.05 M NaCl, 0.5 mM EDTA and 0.05% CHAPS. Synthetic peptide substrate Arg-Glu(EDANS)-Ile-His-Pro-Phe-His-Leu-Val-Ile_His_Thr-Lys(DABCYL)-Arg9 is added to a final concentration of 2 μM and increase in fluorescence is recorded at an excitation wave-length of 350 nm and at an emission wave-length of 500 nm in a microplate spectro-fluorimeter. IC50 values are calculated from percentage of inhibition of renin activity as a function of test compound concentration (Fluorescence Resonance Energy Transfer, FRET, assay).
Alternatively, recombinant human renin (expressed in Chinese Hamster Ovary cells and purified using standard methods) at 0.5 nM concentration is incubated with test compound at various concentrations for 2 h at 37° C. in 0.1 M Tris-HCl buffer, pH 7.4, containing 0.05 M NaCl, 0.5 mM EDTA and 0.05% CHAPS. Synthetic peptide substrate Arg-Glu(EDANS)-Ile-His-Pro-Phe-His-Leu-Val-Ile_His_Thr-Lys(DABCYL)-Arg9 is added to a final concentration of 4 μM and increase in fluorescence is recorded at an excitation wave-length of 340 nm and at an emission wave-length of 485 nm in a microplate spectro-fluorimeter. […]

SMILES: Cc1cccc(CN(C(=O)[C@H]2CNCC[C@@H]2c2cccc(-c3ccccc3)c2)C2CC2)c1C [Example 75]
- inhibitory activity compared with the active enantiomer of Example 8: same inhibitory activity to an active enantiomer of Example 8
